Measured values: BindingDB's records for doi:10.1016/S0960-894X(97)00175-3 (1997)

What follows are molecules tested against Squalene monooxygenase (Sus scrofa) (assay: In vitro inhibition of pig liver microsomal squalene epoxidase (SE) by measuring the extend of cholesterol radiolabeling after incubation with [14C]mevalonate).

Compound | IC50
CCN(CC#Cc1cccc(N=[N+]=[N-])c1)Cc1cccc(OCc2cc(-c3ccsc3)cs2)c1 [[3-(3-Azido-phenyl)-prop-2-ynyl]-[3-([3,3']bithiophenyl-5-ylmethoxy)-benzyl]-ethyl-amine] | 0.27 µM
CCN(C/C=C/C#CC(C)(C)C)Cc1cccc(OC[Si](C)(C)c2ccc(N=[N+]=[N-])cc2)c1 [(3-{[(4-Azido-phenyl)-dimethyl-silanyl]-methoxy}-benzyl)-(6,6-dimethyl-hept-2-en-4-ynyl)-ethyl-amine] | 0.52 µM
CCN(CC#Cc1ccccc1N=[N+]=[N-])Cc1cccc(OCc2cc(-c3ccsc3)cs2)c1 [[3-(2-Azido-phenyl)-prop-2-ynyl]-[3-([3,3']bithiophenyl-5-ylmethoxy)-benzyl]-ethyl-amine] | > 100 µM

More lines, now with the values ahead:

IC50 | Compound
0.96 µM | CCN(CC#Cc1ccc(N=[N+]=[N-])cc1)Cc1cccc(OCc2cc(-c3ccsc3)cs2)c1 [[3-(4-Azido-phenyl)-prop-2-ynyl]-[3-([3,3']bithiophenyl-5-ylmethoxy)-benzyl]-ethyl-amine]
0.1 µM | CCN(CC#Cc1ccccc1)Cc1cccc(OCc2cc(-c3ccsc3)cs2)c1 [[3-([3,3']Bithiophenyl-5-ylmethoxy)-benzyl]-ethyl-(3-phenyl-prop-2-ynyl)-amine]
